Non-standard residues stand in square brackets, D forms with d. Residues, ends and D or L forms follow the SMILES beside them. Ahx = NCCCCCC(=O)O; NEtG = CCNCC(=O)O; Sar = CNCC(=O)O
Assays:
[1] = test system: platelet aggregation; conditions: cited from earlier work
[2] = target: thrombin-stimulated platelets (Homo sapiens, UniProt P05106+P08514); assay: Fibrinogen-Binding Assay (125I-fibrinogen binding to platelets); conditions: for IC50: 125I-fibrinogen 0.176 μmol/liter, thrombin-stimulated platelets, read-out: Inhibition of 125I-Fibrinogen Binding to Platelets IC50
Chain of thrombin-stimulated platelets (P08514 32-1039): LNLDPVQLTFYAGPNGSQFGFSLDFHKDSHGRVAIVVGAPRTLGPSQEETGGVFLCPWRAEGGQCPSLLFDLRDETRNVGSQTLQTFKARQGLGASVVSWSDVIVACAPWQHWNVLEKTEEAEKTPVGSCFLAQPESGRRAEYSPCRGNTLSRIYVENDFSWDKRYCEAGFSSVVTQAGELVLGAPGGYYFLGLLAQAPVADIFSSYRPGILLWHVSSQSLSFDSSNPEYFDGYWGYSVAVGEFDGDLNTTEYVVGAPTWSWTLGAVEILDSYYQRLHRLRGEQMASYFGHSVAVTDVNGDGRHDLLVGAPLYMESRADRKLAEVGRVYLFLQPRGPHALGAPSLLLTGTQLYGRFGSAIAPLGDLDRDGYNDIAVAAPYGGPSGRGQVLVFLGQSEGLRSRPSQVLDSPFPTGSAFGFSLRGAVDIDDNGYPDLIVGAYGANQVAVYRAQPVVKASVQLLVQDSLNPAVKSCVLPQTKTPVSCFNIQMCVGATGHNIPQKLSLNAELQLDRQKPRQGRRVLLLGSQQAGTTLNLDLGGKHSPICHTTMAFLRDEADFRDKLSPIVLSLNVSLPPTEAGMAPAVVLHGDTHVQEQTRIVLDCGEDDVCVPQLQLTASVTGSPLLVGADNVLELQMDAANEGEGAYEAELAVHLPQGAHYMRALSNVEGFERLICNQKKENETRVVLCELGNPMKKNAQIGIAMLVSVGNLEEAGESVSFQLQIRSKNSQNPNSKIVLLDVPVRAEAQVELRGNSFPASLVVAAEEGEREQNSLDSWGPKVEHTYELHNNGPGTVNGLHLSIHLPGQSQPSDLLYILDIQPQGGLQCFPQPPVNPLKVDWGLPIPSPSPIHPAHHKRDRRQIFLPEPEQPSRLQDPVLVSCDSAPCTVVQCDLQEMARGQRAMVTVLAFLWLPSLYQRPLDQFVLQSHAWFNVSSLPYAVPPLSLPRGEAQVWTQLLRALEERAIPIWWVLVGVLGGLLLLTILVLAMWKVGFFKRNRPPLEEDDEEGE
Chain of thrombin-stimulated platelets (P05106 27-788): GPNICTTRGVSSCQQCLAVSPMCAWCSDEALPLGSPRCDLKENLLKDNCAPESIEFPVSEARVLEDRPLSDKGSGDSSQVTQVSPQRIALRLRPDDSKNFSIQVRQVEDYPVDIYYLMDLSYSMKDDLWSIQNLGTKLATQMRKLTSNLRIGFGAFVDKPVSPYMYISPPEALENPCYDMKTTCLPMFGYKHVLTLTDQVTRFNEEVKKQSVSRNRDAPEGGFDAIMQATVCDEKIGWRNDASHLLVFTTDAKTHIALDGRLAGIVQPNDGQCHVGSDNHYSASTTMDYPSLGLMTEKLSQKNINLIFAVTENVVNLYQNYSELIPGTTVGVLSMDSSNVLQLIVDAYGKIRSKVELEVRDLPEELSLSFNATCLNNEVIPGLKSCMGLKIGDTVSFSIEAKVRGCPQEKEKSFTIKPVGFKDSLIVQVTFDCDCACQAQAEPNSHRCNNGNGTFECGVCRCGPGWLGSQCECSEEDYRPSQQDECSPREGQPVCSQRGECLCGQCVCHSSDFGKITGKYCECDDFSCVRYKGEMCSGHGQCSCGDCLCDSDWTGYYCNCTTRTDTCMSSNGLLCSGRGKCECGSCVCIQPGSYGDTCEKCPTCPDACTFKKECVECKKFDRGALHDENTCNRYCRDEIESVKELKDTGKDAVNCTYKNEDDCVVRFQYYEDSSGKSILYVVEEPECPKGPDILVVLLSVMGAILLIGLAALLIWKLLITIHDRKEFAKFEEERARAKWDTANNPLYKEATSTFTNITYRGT

[3] = target: fixed activated platelets (Homo sapiens, UniProt P05106+P08514); assay: Platelet Aggregation Assay (fibrinogen-mediated aggregation of fixed-activated platelets); assay type: cell-based; conditions: for IC50: fixed activated platelets, human fibrinogen 250 μg/ml, read-out: Inhibition of Fibrinogen Mediated Platelet Aggregation IC50; for inhibition at 25 µM: read-out: Inhibition of Fibrinogen Mediated Platelet Aggregation % inhibition at 25 μM; for inhibition at 100 µM: read-out: Inhibition of Fibrinogen Mediated Platelet Aggregation % inhibition at 100 μM
Chain of fixed activated platelets (P08514 32-1039): as the sequence (P08514 32-1039) above
Chain of fixed activated platelets (P05106 27-788): as the sequence (P05106 27-788) above
Procedure, shortened: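 Activated platelets fixed with 0.50% paraformaldehyde for 30 min at room temperature. They were then pre-incubated 1 min with test compound before aggregation was triggered by human fibrinogen at 250 μg/ml final. Aggregation recorded on an aggregometer.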

IC50 [2] [nM] | IC50 [3] [nM] | inhibition at 25 µM [3] [%] | inhibition at 100 µM [3] [%] | inhibition at 50 µg/mL ([2]; read-out: Inhibition of 125I-Fibrinogen Binding to Platelets: Inhibited <50% at 50 μg/ml) [%] | Compound | inhibiting thrombin-induced platelet aggregation [1]
– | – | – | – | – | arg-gly-asp-ser | capable of inhibiting thrombin-induced platelet aggregation
– | – | – | – | – | gly-arg-gly-asp-ser | capable of inhibiting thrombin-induced platelet aggregation
15000 | 2000 | 97 | – | – | CC[C@H](C)[C@H](NC(=O)[C@H](CC(=O)O)NC(=O)CCCCCCCCNC(=N)N)C(=O)N[C@H](CCCNC(=N)N)C(=O)O [9-Guanidinononanoyl-L-aspartyl-L-isoleucyl-D-arginine] | –
50 | 560 | 96 | – | – | CC[C@H](C)[C@H](NC(=O)[C@H](CC(=O)O)NC(=O)CN(CC)C(=O)CCCCCNC(=N)N)C(=O)O [6-Guanidinohexanoyl-N-ethylglycyl-L-aspartyl-L-isoleucine] | –
> 200000 | 10500 | 86 | – | – | CCCC(C)CN(CC(=O)N[C@@H](CC(=O)O)C(=O)N[C@H](C(=O)O)C(C)C)C(=O)CCCCCNC(=N)N (stereo partly drawn) [6-Guanidinohexanoyl-N-(2-methylpentyl)glycine-L-aspartic acid-L-valine] | –
7000 | – | 36 | – | – | CC(C)[C@H](NC(=O)[C@H](CC(=O)O)NC(=O)CCCCCCCCCCCNC(=N)N)C(=O)O [12-Guanidinododecanoyl-L-aspartyl-L-valine] | –
200 | 1700 | 96 | – | – | CC(C)[C@H](NC(=O)[C@H](CC(=O)O)NC(=O)CCCCCCCCNC(=N)N)C(=O)O [9-guanidinononanoyl-L-aspartyl-L-valine] | –
14000 | 14000 | – | 92 | – | CC(C)[C@H](NC(=O)[C@H](CC(=O)O)NC(=O)CN(C)C(=O)[C@@H](N)CCCNC(=N)N)C(=O)O [L-arginylsarcosyl-L-aspartyl-L-valine] (H-R[Sar]DV-OH) | –
625 | 540 | 97 | – | – | CC(C)COC(=O)[C@H](CCCNC(=N)N)NC(=O)[C@H](CC(=O)O)NC(=O)CCCCCCCCNC(=N)N [9-guanidinononanoyl-L-aspartyl-L-arginine isobutyl ester] | –
12000 | 8800 | 77 | – | – | CC(C)[C@H](NC(=O)[C@H](CC(=O)O)NC(=O)C=CCCCCCCCNC(=N)N)C(=O)O [10-Guanidinodec-2-enoyl-L-aspartyl-L-valine] | –
2500 | 10300 | 77 | – | – | CC(C)[C@H](NC(=O)[C@H](CC(=O)O)NC(=O)CCCCCCCCCNC(=N)N)C(=O)O [10-Guanidinodecanoyl-L-aspartyl-L-valine] | –
1100 | 8600 | 83 | – | – | CC(C)[C@H](NC(=O)[C@H](CC(=O)O)NC(=O)CN(C(=O)CCCCCNC(=N)N)C(C)C)C(=O)O [6-Guanidinohexanoyl-N-(2-propyl)glycyl-L-aspartyl-L-valine] | –
580 | 630 | 90 | – | – | N=C(N)NCCCCCC=CC(=O)N[C@@H](CC(=O)O)C(=O)N[C@@H](CCCNC(=N)N)C(=O)O [8-Guanidinooct-2-enoyl-L-aspartyl-L-arginine] | –
350 | 1900 | 93 | – | – | CCN(CC(=O)N[C@@H](CC(=O)O)C(=O)N[C@H](C(=O)O)C(C)C)C(=O)CCCCCn1ccnc1C [6-(2-Methylimidazol-1-yl)hexanoyl-N-(ethyl)-glycyl-L-aspartyl-L-valine] | –
200 | 690 | 96 | – | – | N=C(N)NCCCCCCCC(=O)N[C@@H](CC(=O)O)C(=O)N[C@@H](Cc1ccccc1)C(=O)O [8-Guanidinooctanoyl-L-aspartyl-L-phenyl-alanine] | –
840 | 5700 | 85 | – | – | CC(C)[C@H](NC(=O)[C@H](CC(=O)O)NC(=O)CN(Cc1ccccc1)C(=O)CCCCCNC(=N)N)C(=O)O [6-Guanidinohexanoyl-N-benzylglycyl-L-aspartyl-L-valine] | –
3600 | 7300 | 94 | – | – | CN(CC(=O)N[C@@H](CC(=O)O)C(=O)N[C@@H](Cc1ccc(O)cc1)C(=O)O)C(=O)CCCCCNC(=N)N [6-Guanidinohexanoyl-sarcosyl-L-aspartyl-L-tyrosine] | –
130000 | 20400 | – | 48 | – | N=C(N)NCCCCC(=O)NCC(=O)N[C@@H](CC(=O)O)C(=O)N1CCc2ccccc2C1 [2-[N-(5-guanidinopentanoyl)glycyl-L-aspartyl]-1,2,3,4-tetrahydroisoquinoline] | –
860 | 11600 | 78 | – | – | CC(C)[C@H](NC(=O)[C@H](CC(=O)O)NC(=O)CCCCCCCn1ccnc1)C(=O)O [8-(Imidazol-1-yl)-octanoyl-L-aspartyl-L-valine] | –
5000 | 11400 | 73 | – | – | CCN(CC(=O)N[C@@H](CC(=O)O)C(=O)NC(CC)(CC)C(=O)O)C(=O)CCCCCNC(=N)N [6-Guanidinohexanoyl-N-ethyl-glycyl-L-aspartyl-2,2-diethylglycine] | –
40 | 630 | 91 | – | – | CCN(CC(=O)N[C@@H](CC(=O)O)C(=O)N[C@H](C(=O)O)C(C)C)C(=O)CCCCNC(=N)N [5-Guanidinopentanoyl-N-ethylglycyl-L-aspartyl-L-valine] | –
120 | 380 | 96 | – | – | CCN(CC(=O)N[C@@H](CC(=O)O)C(=O)N[C@H](C(=O)O)C(C)C)C(=O)CCCCCNC(=N)N [6-Guanidinohexanoyl-N-ethylglycine-L-aspartyl-L-valine] | –
210 | 300 | 95 | – | – | CCCC[C@H](NC(=O)[C@H](CC(=O)O)NC(=O)CCCCCCCCNC(=N)N)C(=O)N[C@@H](CCCNC(=N)N)C(=O)O [9-Guanidinononanoyl-L-aspartyl-L-norleucyl-L-arginine] | –
– | > 100000 | – | 17.5 | < 50 | CC(C)[C@H](NC(=O)[C@H](C)NC(=O)CNC(=O)[C@@H](N)CCCNC(=N)N)C(=O)O [L-arginylglycyl-L-alanyl-L-valine] (H-RGAV-OH) | –
430 | – | 24 | – | – | CC(C)[C@H](NC(=O)[C@H](CC(=O)O)NC(=O)/C=C/CCCCCCNC(=N)N)C(=O)O [9-Guanidinonon-2-(E)-enoyl-L-aspartyl-L-valine] | –
4000 | 4100 | 92 | – | – | CCN(CC(=O)N[C@@H](CC(=O)O)C(=O)N[C@H](C(=O)O)C(C)C)C(=O)CCCCCN [6-Aminohexanoyl-N-ethylglycyl-L-aspartyl-L-valine] (H-[Ahx][NEtG]DV-OH) | –
15000 | 15000 | 68 | – | – | N=C(N)NCCCCCCCCC(=O)N[C@@H](CC(=O)O)C(=O)N[C@@H](CCCNC(=N)N)C(=O)N[C@@H](CCCNC(=N)N)C(=O)O [9-Guanidinononanoyl-L-aspartyl-L-arginyl-L-arginine] | –

Compound | IC50 [2] [nM] | IC50 [3] [nM] | inhibition at 25 µM [3] [%] | inhibition at 100 µM [3] [%] | inhibition at 50 µg/mL ([2]; read-out: Inhibition of 125I-Fibrinogen Binding to Platelets: Inhibited <50% at 50 μg/ml) [%] | inhibiting thrombin-induced platelet aggregation [1]
N=C(N)NCCCCCCCC(=O)N[C@@H](CC(=O)O)C(=O)NCCCCNC(=N)N [8-Guanidinooctanoyl-L-aspartyl-(des-carboxy)-L-arginine] | 990 | 1900 | 91 | – | – | –
N=C(N)NCCCCCCCCC(=O)N[C@@H](CC(=O)O)C(=O)NCCCCNC(=N)N [9-Guanidinononanoyl-L-aspartyl-(des-carboxy)-L-arginine] | 520 | 4400 | 84 | – | – | –

— US5332726A, “Antithrombotic peptides and pseudopeptides” (Rhone-Poulenc Rorer Pharmaceuticals Inc., priority 1992, dated 1994)
